Earlier results on one compound are cited in patent US20240398651A1 (Neuro-Innovators, LLC., priority 2021, published 2024).

For series [1] the following is noted: previous clinical trials, compared with aspirin.
The conditions of series [2]: in vivo.

For the compound `O=C1CCc2cc(OCCCCc3nnnn3C3CCCCC3)ccc2N1` [Cilostazol], in series [1], the hemorrhagic events entry was “fewer hemorrhagic events” and the “incidence of recurrent stroke” value is on record as “significantly reduce the incidence of recurrent stroke”. Besides, the elimination half-life in series [2] was 11 to 13 h.
